Assay results published in PMC13086964, “USP7 deubiquitinase stabilizes FAN1 to support DNA crosslink repair and suppress CAG repeat expansion” (Nature Communications, 2026).

Tests used:
Assay type in all cases: cell-based, human
RPE-1 p53 KO cells = experiment: clonogenic survival assay, RPE-1 p53 KO; details: 24 h, n = 3
Procedure: Fig. 4 USP7 facilitates FAN1 localization and function during ICL repair. A QIBC analysis of chromatin-bound GFP-FAN1 foci in U2OS^eGFP-FAN1 cells transfected with either non-targeting (Ctrl), USP7 or FANCD2 siRNA oligos. 24 h later, cells were either mock-treated (–) or treated (+) with MMC (150 ng/ml) for 24 h. Color-coded scatterplots (from grey to green) indicate the number of GFP-FAN1 foci per nucleus from one biological replicate. Mean (solid line) and standard deviation (SD) from the mean (dashed lines) are indicated. Representative images are shown (bottom). Scale bar: 10 μm. This experiment was repeated three times. B QIBC analysis of endogenous FANCD2 foci in U2OS^eGFP-FAN1 cells transfected with either non-targeting (Ctrl) or the indicated siRNA oligos. 24 h later, cells were either mock-treated (−) or treated (+) with MMC (150 ng/ml) for 24 h. […] 24 h later, cells were either mock-treated (−) or treated (+) with MMC (1 μg/ml) for 48 h and whole-cell lysates were analysed by immunoblotting. […] Relative FAN1, cleaved PARP-1 or cleaved Caspase-3 protein levels were determined by quantification of the respective band intensity (normalized to GAPDH) with the ImageJ software. […]
HeLa and RPE-1 p53 KO cells were transfected with the indicated siRNA. […] For analysis, plates were scanned and analysed with the ImageJ Plugin ColonyArea using the parameter “intensity percent”.

FAN1 protein level = experiment: immunoblot of FAN1 levels after MMC, HeLa; details: MMC 1 μg/ml, 48 h
Procedure: (§1) Fig. 4 USP7 facilitates FAN1 localization and function during ICL repair. A QIBC analysis of chromatin-bound GFP-FAN1 foci in U2OS^eGFP-FAN1 cells transfected with either non-targeting (Ctrl), USP7 or FANCD2 siRNA oligos. 24 h later, cells were either mock-treated (–) or treated (+) with MMC (150 ng/ml) for 24 h. Color-coded scatterplots (from grey to green) indicate the number of GFP-FAN1 foci per nucleus from one biological replicate. Mean (solid line) and standard deviation (SD) from the mean (dashed lines) are indicated. Representative images are shown (bottom). Scale bar: 10 μm. This experiment was repeated three times. B QIBC analysis of endogenous FANCD2 foci in U2OS^eGFP-FAN1 cells transfected with either non-targeting (Ctrl) or the indicated siRNA oligos. 24 h later, cells were either mock-treated (−) or treated (+) with MMC (150 ng/ml) for 24 h. Color-coded scatterplots (from grey to blue) indicate the number of FANCD2 foci per nucleus from one biological replicate. Mean (solid line) and standard deviation (SD) from the mean (dashed lines) are indicated. […] 24 h later, cells were either mock-treated (−) or treated (+) with MMC (1 μg/ml) for 48 h and whole-cell lysates were analysed by immunoblotting. […] Relative FAN1, cleaved PARP-1 or cleaved Caspase-3 protein levels were determined by quantification of the respective band intensity (normalized to GAPDH) with the ImageJ software. […]

[1] = system: HeLa parental and FAN1 KO cells; experiment: apoptosis: PARP-1 and caspase-3 cleavage, HeLa; details: 48 h
Procedure: as §1

HeLa FAN1 KO cells = experiment: clonogenic survival assay, HeLa FAN1 KO; details: MMC 10, 20, and 40 ng/ml, 24 h, n=3
Procedure: HeLa and RPE-1 p53 KO cells were transfected with the indicated siRNA. The next day, the cells were seeded in six-well plates. The next day, the cells were treated with MMC for 24 h. Plates were then washed twice with 2 ml of PBS before adding fresh growth medium to the cells, that were then cultured for 13 days at 37 °C before fixation with crystal violet solution [0.5% crystal violet and 20% ethanol (w/v)]. For analysis, plates were scanned and analysed with the ImageJ Plugin ColonyArea using the parameter “intensity percent”. […]
the mean (dashed lines) are indicated. Representative images are shown (bottom). Scale bar: 10 μm. […]
Western blot analysis of HeLa cells depleted of the indicated factors. (E) Clonogenic survival assay of the HeLa cells depleted of the indicated factors (Ctrl: black circle; FANCD2: red square; USP7#1: inverted blue triangle; USP7#2: cyan triangle; RAD18: brown diamond) and exposed to increasing doses of MMC for 24 h. Viability of untreated cells was defined as 100%. Data are presented as the means ± SD of four biological replicates (n=4). Representative images are shown (left). (F) Western blot analysis of HeLa and HeLa FAN1 KO cells depleted of the indicated factors. […]

CO[C@@]12[C@H](COC(N)=O)C3=C(C(=O)C(C)=C(N)C3=O)N1C[C@@H]1N[C@@H]12 [MMC, Mitomycin C]
MMC sensitivity, FAN1/USP7 co-depletion (RPE-1 p53 KO cells): did not enhance sensitivity beyond individual knock-down of FAN1 | MMC sensitivity, FANCD2-depleted (RPE-1 p53 KO cells): strongest MMC sensitivity | FAN1 levels in response to MMC (FAN1 protein level): upregulated | MMC-induced FAN1 upregulation with USP7 depletion (FAN1 protein level; USP7 siRNA): abrogated by USP7 depletion | apoptosis (cleavage of PARP-1 and caspase-3) ([1]; HeLa FAN1 KO cells depleted of USP7, MMC 1 µg/ml): further amplified | apoptosis (cleavage of PARP-1 and caspase-3) ([1]; HeLa, USP7 depletion or FAN1 loss, MMC 1 µg/ml): increased apoptosis | MMC sensitivity, RAD18 or FANCD2 depletion (HeLa FAN1 KO cells): additive increase in sensitivity | MMC sensitivity, USP7 depletion (HeLa FAN1 KO cells): did not exacerbate MMC hypersensitivity
